Marks after values point to notes of the source that are not given here.
Legend:
Assay in all cases: In vitro agar-diffusion test
Type in all cases: cell-based
Rhizoctonia solani X767 = system: Rhizoctonia solani X767
Experimental: (§1) The activity of scytophycin compounds against pathogenic fungi in standard in vitro agar-diffusion tests, using ¼"(6mm) discs holding ~30 µL of test solution, is illustrated in Tables 6-12.

[1] = system: Sclerotina homoeocarpa X768
Experimental: as §1

[2] = system: Saccharomyces pastorianus X52; set-up: key: T = trace
Experimental: as §1

Neurospora crassa X846 = system: Neurospora crassa X846
Experimental: as §1

Candida albicans X657 = system: Candida albicans X657
Experimental: as §1

Pythium ultimum X751 = system: Pythium ultimum X751
Experimental: as §1

Substance | Size of Zone of Inhibition (mm) (Rhizoctonia solani X767; Table 12, 0.5 mg/mL) | Size of Zone of Inhibition (mm) ([1]; Table 12, 0.5 mg/mL) | Size of Zone of Inhibition (mm) ([2]; Table 9, 1 mg/mL) | Size of Zone of Inhibition (mm) (Neurospora crassa X846; Table 9, 1 mg/mL) | Size of Zone of Inhibition (mm) (Candida albicans X657; Table 9, 1 mg/mL) | Size of Zone of Inhibition (mm) (Pythium ultimum X751; Table 12, 0.5 mg/mL) | Size of Zone of Inhibition (mm) (Rhizoctonia solani X767; Table 11, 0.33 mg/mL) | Size of Zone of Inhibition (mm) (Rhizoctonia solani X767; Table 11, 1.0 mg/mL) | Size of Zone of Inhibition (mm) ([1]; Table 11, 0.33 mg/mL) | Size of Zone of Inhibition (mm) ([1]; Table 11, 1.0 mg/mL) | Size of Zone of Inhibition (mm) ([2]; Table 8, 0.33 mg/mL) | Size of Zone of Inhibition (mm) ([2]; Table 8, 1 mg/mL) | Size of Zone of Inhibition (mm) (Neurospora crassa X846; Table 8, 0.33 mg/mL) | Size of Zone of Inhibition (mm) (Neurospora crassa X846; Table 8, 1 mg/mL) | Size of Zone of Inhibition (mm) (Candida albicans X657; Table 8, 0.33 mg/mL) | Size of Zone of Inhibition (mm) (Candida albicans X657; Table 8, 1 mg/mL) | Size of Zone of Inhibition (mm) (Pythium ultimum X751; Table 11, 0.33 mg/mL) | Size of Zone of Inhibition (mm) (Pythium ultimum X751; Table 11, 1.0 mg/mL) | Size of Zone of Inhibition (mm) (Rhizoctonia solani X767; Table 11, 0.33 mg/mL, second value of the cell, after the zone marked overgrowth) | Size of Zone of Inhibition (mm) (Rhizoctonia solani X767; Table 11, 1.0 mg/mL, second value of the cell, after the zone marked overgrowth)
Scytophycin C | 30 | 32 | 17 | 30 | 22 | 12^a mm | – | – | – | – | – | – | – | – | – | – | – | – | – | –
Scytophycin D | – | – | – | – | – | – | 22 | 30 | 20 | 26 | T^a | 12 | 20 | 25 | 14 | 19 | 24 | 27 | – | –
Scytophycin E | – | – | – | – | – | – | 33 | 46 | 33 | 35 | 18 mm | 23 | 26 | 36 | 22 | 21 | 30 | 40 | 15 | 25

Reference: patent EP0205308B1, “Scytophycins” (Moore, Richard Elliott, priority 1985, dated 1986)
